Here are results for two sequences from ChEMBL document CHEMBL1145890, “Synthesis, characterization, and in vitro antitumor activity of osteotropic diam(m)ineplatinum(II) complexes bearing a N,N-bis(phosphonomethyl)glycine ligand” (J Med Chem, 2003).

For orientation: IC50 means the midpoint of a concentration-inhibition curve. Low readings indicate greater potency, high ones weaker potency.

The test system of the assay is CH1. Description: Antiproliferative activity in human ovarian cancer cell line (CH1) using MTT assay. The assay is classed as functional, cell-based. On the technique in general: Tetrazolium assays rely on reduction of a dye to a coloured formazan, in cell work by metabolically active cells.

As for CARBOPLATIN, the IC50 is 2500 nM.
In turn, OXALIPLATIN had an IC50 of 270 nM.
